Here are results for nine compounds from PubChem BioAssay (NCI).

Test systems include A498 renal; EKVX NSCLC; HCT-116 colon; UO-31 renal; HL-60(TB) leukemia; SR leukemia; NCI-H226 lung; A549 NSCLC; MOLT-4 leukemia; HCC-2998 colon.
Common to all, as to test: inhibition of tumour cell growth, NCI panel, 48 h

“And” between values parts separate entries of the source, which are not always exact repeats. Equal entries are not always repeated.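 Dose response: 5 concentrations. Exposure: 48 h. Format: 96-well plates. Endpoint: linear interpolation; highest concentration if not reached. GI50 = concentration required for 50% inhibition of growth. Definition used: TGI = concentration required for complete inhibition of growth.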

On to `CC(=O)NC(CCCCN(Cc1ccccc1)C(=O)N(CCCl)N=O)C(=O)NCc1ccccc1` (stereo unspecified), for which the TGI in the experiment on A498 renal was more than 100 µM; with EKVX NSCLC, 97.9 µM; in the experiment with HCT-116 colon it was more than 62.6 µM; in the experiment with UO-31 renal, 57.2 µM; with HL-60(TB) leukemia it was 65.4 µM; in the experiment with SR leukemia it was 47.6 µM. Besides, the TGI was more than 96.7 µM in the experiment on NCI-H226 lung, 49.5 µM with A549 NSCLC, more than 82.1 µM in the experiment with MOLT-4 leukemia and more than 100 µM with HCC-2998 colon.

Take `NC(=Nc1nc(-c2ccccn2)cc2ccccc12)c1ccccn1`: the GI50 is 0.0283 µM with A498 renal; 0.00151 µM in the experiment with HCT-116 colon; 0.239 µM in the experiment with UO-31 renal; 0.00104 µM with HL-60(TB) leukemia; 0.0619 µM and < 0.0145 µM with SR leukemia; 0.237 µM in the experiment on NCI-H226 lung. The GI50 with A549 NSCLC was 0.255 µM; in the experiment with MOLT-4 leukemia it was 0.00109 µM. For the same compound, the TGI was more than 17.2 µM in the experiment on EKVX NSCLC; more than 100 µM in the experiment on HCT-116 colon; 0.921 µM and 1.96 µM in the experiment with UO-31 renal; 0.0598 µM and 0.251 µM in the experiment on HL-60(TB) leukemia; 0.243 µM and 0.722 µM with SR leukemia; 23 µM in the experiment on NCI-H226 lung. For the same compound, the TGI was more than 48.7 µM in the experiment with A549 NSCLC, 0.0283 µM in the experiment on MOLT-4 leukemia and more than 100 µM in the experiment on HCC-2998 colon.

For `O=c1c(-c2ccc(O)cc2)coc2cc(OC3OC(CO)C(O)C(O)C3O)cc(O)c12` (stereo unspecified), the TGI in the experiment with A498 renal, in the experiment on EKVX NSCLC, with HCT-116 colon, in the experiment with UO-31 renal, with HL-60(TB) leukemia and with SR leukemia was more than 100 µM each time. Also, the TGI with NCI-H226 lung, with A549 NSCLC, with MOLT-4 leukemia and with HCC-2998 colon was more than 100 µM in each case. The GI50 in the experiment with HL-60(TB) leukemia is more than 100 µM; in the experiment with SR leukemia, more than 10 µM; in the experiment with A549 NSCLC, more than 10 µM; in the experiment on MOLT-4 leukemia it was more than 10 µM.

As for `Cc1c(C2Cc3ccccc3N2)c2ccccc2n1C` (stereo unspecified), the TGI in the experiment with A498 renal, in the experiment on EKVX NSCLC, with HCT-116 colon, in the experiment with UO-31 renal, in the experiment on HL-60(TB) leukemia and with SR leukemia was more than 100 µM each time. Further, the TGI in the experiment with NCI-H226 lung, with A549 NSCLC, in the experiment with MOLT-4 leukemia and in the experiment with HCC-2998 colon was more than 100 µM in each case.

For `CC1CC(C)C2=NOS3=C2C1=NO3` (stereo unspecified), the TGI in the experiment with A498 renal was 94.8 µM; in the experiment with EKVX NSCLC, more than 100 µM; in the experiment on HCT-116 colon, more than 100 µM; in the experiment with UO-31 renal, more than 100 µM; in the experiment with HL-60(TB) leukemia, more than 100 µM; with SR leukemia, more than 100 µM. The TGI in the experiment on NCI-H226 lung, with A549 NSCLC, with MOLT-4 leukemia and in the experiment on HCC-2998 colon was more than 100 µM in each case.

Regarding `CCCCCCN(C)Cc1ccc(OCCOc2ccc(CN(C)CCCCCC)cc2)cc1`, the GI50 in the experiment on A498 renal is 1.24 µM; with EKVX NSCLC, 2.47 µM; with HCT-116 colon, 1.01 µM; in the experiment with UO-31 renal it was 1.04 µM; in the experiment with HL-60(TB) leukemia it was 1.91 µM; with SR leukemia it was 1.04 µM. The GI50 in the experiment on NCI-H226 lung was 1.53 µM; in the experiment on A549 NSCLC, 1.4 µM; with MOLT-4 leukemia, 2.48 µM; with HCC-2998 colon, 0.491 µM. In addition, the TGI in the experiment on A498 renal came out at 3.17 µM; in the experiment with EKVX NSCLC, 15.1 µM; in the experiment with HCT-116 colon, 2.21 µM; in the experiment with UO-31 renal, 5.01 µM; in the experiment on HL-60(TB) leukemia, 4.51 µM; with SR leukemia it was 11.6 µM. In addition, the TGI with NCI-H226 lung was 3.19 µM; in the experiment on A549 NSCLC, 2.91 µM; in the experiment on MOLT-4 leukemia, 10.5 µM; in the experiment on HCC-2998 colon, 1.81 µM.

With `COC(=O)c1ccc2c(c1)c1c(C)c3ccncc3c(C)c1n2C`, the GI50 is 0.583 µM with A498 renal; 0.274 µM with EKVX NSCLC; 0.0495 µM with HCT-116 colon; 0.0717 µM with UO-31 renal; 1.13 µM with HL-60(TB) leukemia; 0.0575 µM in the experiment on SR leukemia. The GI50 was 0.352 µM with NCI-H226 lung, 0.484 µM with A549 NSCLC, 0.0992 µM in the experiment with MOLT-4 leukemia and 3.86 µM in the experiment with HCC-2998 colon. For the same compound, the TGI in the experiment with A498 renal is 13.7 µM; in the experiment on EKVX NSCLC, 36.2 µM; with HCT-116 colon it was more than 100 µM; in the experiment with UO-31 renal, 77.5 µM; in the experiment on HL-60(TB) leukemia, 39.4 µM; in the experiment on SR leukemia it was 3.39 µM. In addition, the TGI in the experiment with NCI-H226 lung was 13.2 µM; with A549 NSCLC, more than 100 µM; with MOLT-4 leukemia, 44.7 µM; with HCC-2998 colon it was more than 100 µM.

Take `CCOc1c(C#N)c2c(N)ncnc2n1C1OC(CO)C(O)C1O` (stereo unspecified): the GI50 is 4.23 µM in the experiment with A498 renal; 4.74 µM with EKVX NSCLC; 0.881 µM in the experiment on HCT-116 colon; 2.86 µM with UO-31 renal; 1.94 µM in the experiment with HL-60(TB) leukemia; 1.3 µM in the experiment with SR leukemia. Moreover, the GI50 is 6.93 µM with NCI-H226 lung, 2.27 µM with A549 NSCLC, 2.95 µM in the experiment on MOLT-4 leukemia and 3.92 µM with HCC-2998 colon. Further, the TGI in the experiment on A498 renal is 49.2 µM; with EKVX NSCLC, more than 100 µM; with HCT-116 colon, 3.27 µM; in the experiment with UO-31 renal, more than 40.3 µM; in the experiment with HL-60(TB) leukemia, 6.94 µM; with SR leukemia, 5.5 µM. For the same compound, the TGI in the experiment with NCI-H226 lung is more than 91.8 µM; in the experiment with A549 NSCLC, more than 100 µM; with MOLT-4 leukemia, 15.1 µM; in the experiment with HCC-2998 colon, 28.2 µM.

As to `COc1cc(/C=C\c2cc(/C=C\c3ccc(O)c(OC)c3)n(C(=O)CNc3ccc(Cl)cc3)n2)ccc1O`, the GI50 with A498 renal was 7.64 µM; in the experiment with EKVX NSCLC, 3.48 µM; in the experiment with HCT-116 colon, 2.9 µM; in the experiment with UO-31 renal, 1.21 µM; with HL-60(TB) leukemia it was 2.07 µM; in the experiment with SR leukemia, 0.341 µM. The GI50 is 4.39 µM in the experiment on NCI-H226 lung, 3.94 µM in the experiment with A549 NSCLC, 2.05 µM in the experiment on MOLT-4 leukemia and 6.01 µM in the experiment with HCC-2998 colon. Also, the TGI is 20 µM in the experiment on A498 renal; 14.5 µM with EKVX NSCLC; 13.5 µM in the experiment on HCT-116 colon; 8.42 µM in the experiment with UO-31 renal; 6.68 µM in the experiment on HL-60(TB) leukemia; 7.14 µM in the experiment with SR leukemia. Also, the TGI in the experiment with NCI-H226 lung came to 21.6 µM; with A549 NSCLC, 16.5 µM; in the experiment with MOLT-4 leukemia, 15.6 µM; in the experiment on HCC-2998 colon, 18 µM.
